Measured values published in US4360511A, “Amines useful as brain imaging agents” (Medi-Physics, Inc., priority 1980, dated 1982).
Where two headings read alike, the source gives them in different places.

Key:
[1] = Friedman et al, July 1978; cited from earlier work
[2] = Bioassay: distribution of I-123-labeled compounds in organs of rats after tail vein injection (percent dose/gram, brain/blood ratio); type: in vivo, Female Sprague-Dawley rats; conditions: for Brain/Blood Ratio 5 min. / tissue uptake at 5 min: 5 minutes post-injection; for tissue uptake at 5 min / tissue uptake at 1 h: rat, iv, 0.05 to 1.0 mCi, two rats; for Brain/Blood Ratio 60 min. / tissue uptake at 1 h: 60 minutes post-injection
Experimental: Female Sprague-Dawley rats weighing approximately 150 g were anesthetized with sodium pentobarbital and were injected in a tail vein with from 0.05 to 1.0 mCi (in a volume of 0.2 to 0.5 ml) of the I-123-labeled compound. Two specimens were utilized for each test.
Two animals each were sacrificed at 5 minutes and 60 minutes post-injection, the tails discarded and the amount of activity in various organs determined. Each organ was counted at a standardized geometry with a sodium iodide crystal scintillation counter adjusted for the 159 keV emission of I-123. The organs were also weighed to one thousandth of a gram and the activity calculated as a percent of administered dose per gram of organ weight.
The ratio of brain-to-blood activity was calculated as a percent of administered dose per gram.

[3] = Robinson et al, J Nucl Med 17, p 1093 (1976); cited from earlier work
[4] = blood, read-out: Percent Dose/Gram Blood 5 min.
[5] = brain, read-out: Percent Dose/Gram Brain 5 min.
[6] = heart, read-out: Percent Dose/Gram Heart 5 min.
[7] = blood, read-out: Percent Dose/Gram Blood 60 min.
[8] = brain, read-out: Percent Dose/Gram Brain 60 min.
[9] = heart, read-out: Percent Dose/Gram Heart 60 min.

## 5-hydroxytryptophan
[1]
  activity carried across the blood/brain barrier: carried some activity across the blood/brain barrier
  decarboxylation in vivo: decarboxylated in vivo

## CC(C)N(CCc1ccccc1)CCc1ccccc1[123I] [I--123-N--β-phenethyl-N--isopropyl-o-iodo-β-phenethylamine]
[2]
  Brain/Blood Ratio 5 min.: 1.83
[2]; [4]
  tissue uptake at 5 min: 0.29 %ID/g
[2]; [5]
  tissue uptake at 5 min: 0.53 %ID/g
[2]; [6]
  tissue uptake at 5 min: 2.01 %ID/g

## [123I]c1ccccc1CCNCCc1ccccc1 [I--123-N--β-phenethyl-o-iodo-β-phenethylamine]
[2]
  Brain/Blood Ratio 5 min.: 4.77
  Brain/Blood Ratio 60 min.: 5.17
[2]; [4]
  tissue uptake at 5 min: 0.16 %ID/g
[2]; [7]
  tissue uptake at 1 h: 0.09 %ID/g
[2]; [5]
  tissue uptake at 5 min: 0.74 %ID/g
[2]; [8]
  tissue uptake at 1 h: 0.48 %ID/g
[2]; [6]
  tissue uptake at 5 min: 1.56 %ID/g
[2]; [9]
  tissue uptake at 1 h: 0.26 %ID/g

## [123I]c1ccccc1NCCc1ccccc1 [I--123-N--β-phenethyl-o-iodoaniline]
[2]
  Brain/Blood Ratio 5 min.: 1.24
  Brain/Blood Ratio 60 min.: 0.33
[2]; [4]
  tissue uptake at 5 min: 1.04 %ID/g
[2]; [7]
  tissue uptake at 1 h: 0.48 %ID/g
[2]; [5]
  tissue uptake at 5 min: 1.29 %ID/g
[2]; [8]
  tissue uptake at 1 h: 0.16 %ID/g
[2]; [6]
  tissue uptake at 5 min: 1.16 %ID/g
[2]; [9]
  tissue uptake at 1 h: 0.33 %ID/g

## [123I]c1ccccc1CNCCc1ccccc1 [I--123-N--β-phenethyl-o-iodobenzylamine]
[2]
  Brain/Blood Ratio 5 min.: 2.52
  Brain/Blood Ratio 60 min.: 0.96
[2]; [4]
  tissue uptake at 5 min: 0.27 %ID/g
[2]; [7]
  tissue uptake at 1 h: 0.14 %ID/g
[2]; [5]
  tissue uptake at 5 min: 0.68 %ID/g
[2]; [8]
  tissue uptake at 1 h: 0.14 %ID/g
[2]; [6]
  tissue uptake at 5 min: 0.56 %ID/g
[2]; [9]
  tissue uptake at 1 h: 0.15 %ID/g

## [123I]c1ccc(NCCc2ccccc2)cc1 [I--123-N--β-phenethyl-p-iodoaniline]
[2]
  Brain/Blood Ratio 5 min.: 1.06
[2]; [4]
  tissue uptake at 5 min: 0.88 %ID/g
[2]; [5]
  tissue uptake at 5 min: 0.93 %ID/g
[2]; [6]
  tissue uptake at 5 min: 1.38 %ID/g

## CC(C)N[C@H](C)Cc1ccc([123I])cc1 [I--123-R--N--isopropyl-p-iodoamphetamine, I-123-R-N-isopropyl-p-iodoamphetamine]
[2]
  Brain/Blood Ratio 5 min.: 12.60
  Brain/Blood Ratio 60 min.: 20.70
[2]; [4]
  tissue uptake at 5 min: 0.14 %ID/g
[2]; [7]
  tissue uptake at 1 h: 0.11 %ID/g
[2]; [5]
  tissue uptake at 5 min: 1.57 %ID/g
[2]; [8]
  tissue uptake at 1 h: 2.14 %ID/g
[2]; [6]
  tissue uptake at 5 min: 1.78 %ID/g
[2]; [9]
  tissue uptake at 1 h: 0.87 %ID/g

## C[C@@H](N)Cc1ccc([123I])cc1 [I--123-R--p-iodoamphetamine, I-123-R-p-iodoamphetamine]
[2]
  Brain/Blood Ratio 5 min.: 10.60
  Brain/Blood Ratio 60 min.: 18.50
[2]; [4]
  tissue uptake at 5 min: 0.15 %ID/g
[2]; [7]
  tissue uptake at 1 h: 0.12 %ID/g
[2]; [5]
  tissue uptake at 5 min: 1.38 %ID/g
[2]; [8]
  tissue uptake at 1 h: 2.07 %ID/g
[2]; [6]
  tissue uptake at 5 min: 2.43 %ID/g
[2]; [9]
  tissue uptake at 1 h: 1.09 %ID/g

## CC(C)N[C@@H](C)Cc1ccc([123I])cc1 [I--123-S--N--isopropyl-p-iodoamphetamine, I-123-S-N-isopropyl-p-iodoamphetamine]
[2]
  Brain/Blood Ratio 5 min.: 12.80
  Brain/Blood Ratio 60 min.: 15.40
[2]; [4]
  tissue uptake at 5 min: 0.11 %ID/g
[2]; [7]
  tissue uptake at 1 h: 0.13 %ID/g
[2]; [5]
  tissue uptake at 5 min: 1.32 %ID/g
[2]; [8]
  tissue uptake at 1 h: 1.93 %ID/g
[2]; [6]
  tissue uptake at 5 min: 1.28 %ID/g
[2]; [9]
  tissue uptake at 1 h: 0.85 %ID/g

## C[C@H](N)Cc1ccc([123I])cc1 [I--123-S--p-iodoamphetamine, I-123-S-p-iodoamphetamine]
[2]
  Brain/Blood Ratio 5 min.: 7.04
  Brain/Blood Ratio 60 min.: 11.30
[2]; [4]
  tissue uptake at 5 min: 0.17 %ID/g
[2]; [7]
  tissue uptake at 1 h: 0.17 %ID/g
[2]; [5]
  tissue uptake at 5 min: 1.22 %ID/g
[2]; [8]
  tissue uptake at 1 h: 1.88 %ID/g
[2]; [6]
  tissue uptake at 5 min: 1.52 %ID/g
[2]; [9]
  tissue uptake at 1 h: 0.86 %ID/g

## Cc1c([123I])c(=O)n(-c2ccccc2)n1C [I--123-iodoantipyrine, I-123 labeled 4-iodoantipyrine, reference compound]
[2]; [7]
  tissue uptake at 1 h: 0.94 %ID/g
[2]; [8]
  tissue uptake at 1 h: 0.17 %ID/g
[2]; [9]
  tissue uptake at 1 h: 0.53 %ID/g
[3]
  concentration in the brain: suboptimal concentration in the brain
  in vivo deiodination: rapid in vivo deiodination

## NCCc1ccccc1[123I] [I--123-o-iodo-β-phenethylamine]
[2]
  Brain/Blood Ratio 5 min.: 0.49
[2]; [4]
  tissue uptake at 5 min: 1.43 %ID/g
[2]; [5]
  tissue uptake at 5 min: 0.7 %ID/g
[2]; [6]
  tissue uptake at 5 min: 1.22 %ID/g

## Nc1ccccc1[123I] [I--123-o-iodoaniline]
[2]
  Brain/Blood Ratio 5 min.: 0.28
  Brain/Blood Ratio 60 min.: 0.07
[2]; [4]
  tissue uptake at 5 min: 1.7 %ID/g
[2]; [7]
  tissue uptake at 1 h: 0.44 %ID/g
[2]; [5]
  tissue uptake at 5 min: 0.47 %ID/g
[2]; [8]
  tissue uptake at 1 h: 0.03 %ID/g
[2]; [6]
  tissue uptake at 5 min: 1.02 %ID/g
[2]; [9]
  tissue uptake at 1 h: 0.17 %ID/g

## Nc1ccc([123I])cc1 [I--123-p-iodoaniline]
[2]
  Brain/Blood Ratio 5 min.: 1.12
  Brain/Blood Ratio 60 min.: 1.00
[2]; [4]
  tissue uptake at 5 min: 0.97 %ID/g
[2]; [7]
  tissue uptake at 1 h: 0.8 %ID/g
[2]; [5]
  tissue uptake at 5 min: 1.09 %ID/g
[2]; [8]
  tissue uptake at 1 h: 0.8 %ID/g
[2]; [6]
  tissue uptake at 5 min: 1.11 %ID/g
[2]; [9]
  tissue uptake at 1 h: 0.8 %ID/g

## NC(=O)C(Nc1ccc([123I])cc1)c1ccccc1 (stereo not drawn) [I--123-α-(p-iodoanilino)phenylacetamide]
[2]
  Brain/Blood Ratio 5 min.: 1.30
[2]; [4]
  tissue uptake at 5 min: 0.71 %ID/g
[2]; [5]
  tissue uptake at 5 min: 0.92 %ID/g
[2]; [6]
  tissue uptake at 5 min: 1.42 %ID/g

## N#CC(N)c1ccccc1[123I] (stereo not drawn) [I--123-α-amino-o-iodophenylacetonitrile]
[2]
  Brain/Blood Ratio 5 min.: 1.74
[2]; [4]
  tissue uptake at 5 min: 0.34 %ID/g
[2]; [5]
  tissue uptake at 5 min: 0.58 %ID/g
[2]; [6]
  tissue uptake at 5 min: 0.86 %ID/g

## N#CC(Nc1ccccc1)c1ccccc1[123I] (stereo not drawn) [I--123-α-anilino-o-iodophenylacetonitrile]
[2]
  Brain/Blood Ratio 5 min.: 4.68
  Brain/Blood Ratio 60 min.: 1.41
[2]; [4]
  tissue uptake at 5 min: 0.17 %ID/g
[2]; [7]
  tissue uptake at 1 h: 0.1 %ID/g
[2]; [5]
  tissue uptake at 5 min: 0.8 %ID/g
[2]; [8]
  tissue uptake at 1 h: 0.14 %ID/g
[2]; [6]
  tissue uptake at 5 min: 0.9 %ID/g
[2]; [9]
  tissue uptake at 1 h: 0.24 %ID/g
